From ChEMBL document CHEMBL6103597, “Opto-Epigenetic Regulation of Histone Arginine Asymmetric Dimethylation via Type I Protein Arginine Methyltransferase Inhibition” (J Med Chem, 2025)
The source made the active and inactive calls. No cut-off for these calls is given here.

Legend:
A549 [1] = assay: Effect on transcriptomic profile in human A549 cells at 0.1 uM incubated for 24 hrs by RNA-sequencing analysis; assay type: functional, cell-based
[2] = Photochemical property of compound assessed as maximum fluorescence emission wavelength at 10 uM upon visible light irradiation at 420 nm by UV-Vis absorption spectroscopy; assay type: physicochemical
[3] = Stability in PBS buffer at pH 7.4 at 37 degreeC assessed as compound remaining under dark condition measured for 72 hrs by HPLC analysis; assay type: physicochemical; settings: read-out: Stability
HUVEC = assay: Cytotoxicity against HUVEC cells at 50 uM incubated for 72 hrs under dark condition; assay type: toxicity, cell-based; settings: human
A549 [4] = assay: Effect on transcriptomic profile in human A549 cells at 0.1 uM incubated for 24 hrs followed by light irradiation at 420 nm for 4 mins by RNA-sequencing analysis; assay type: functional, cell-based; settings: time 1444.0 min
A549 [5] = assay: Effect on DNA replication-related pathway in human A549 cells at 0.1 uM incubated for 24 hrs followed by light irradiation at 420 nm for 4 mins by GSEA analysis; assay type: functional, cell-based; settings: time 1444.0 min
A549 [6] = assay: Effect on cell cycle-related pathway in human A549 cells at 0.1 uM incubated for 24 hrs by GSEA analysis; assay type: functional, cell-based
A549 [7] = assay: Effect on transcriptomic profile in human A549 cells assessed as differentially expressed genes at 0.1 uM incubated for 24 hrs followed by light irradiation at 420 nm for 4 mins by RNA-sequencing analysis relative to control; assay type: functional; settings: time 1444 min, 24.07 h
A549 [8] = assay: Effect on DNA replication-related pathway in human A549 cells at 0.1 uM incubated for 24 hrs by GSEA analysis; assay type: functional, cell-based
[9] = Photochemical property of compound assessed as hypsochromic shift by measuring maximum absorption peak wavelength at 10 uM upon visible light irradiation at 420 nm by UV-Vis absorption spectroscopy; assay type: physicochemical
A549 [10] = assay: Antiproliferative activity against human A549 cells assessed as cell viability at 10 uM incubated for 72 hrs by MTT assay relative to control; assay type: functional; settings: read-out: Activity
[11] = Prodrug photolysis assessed as drug degradation at 10 uM upon light irradiation at 420 nm for upto 4 mins by HPLC analysis; assay type: ADME
A549 [12] = assay: Effect on cell cycle-related pathway in human A549 cells at 0.1 uM incubated for 24 hrs followed by light irradiation at 420 nm for 4 mins by GSEA analysis; assay type: functional, cell-based; settings: time 1444.0 min
A549 [13] = assay: Antiproliferative activity against human A549 cells assessed as cell viability at 10 uM incubated for 24 hrs followed by light irradiation at 420 nm for 4 mins and measured after 48 hrs by MTT assay relative to control; assay type: functional; settings: A549, light or radiation study, 72.07 h, time 4324 min, read-out: Activity
[14] = biological target: Protein arginine N-methyltransferase 6 (Homo sapiens) (UniProt Q96LA8); assay: Inhibition of PRMT6 in human A549 cells assessed as decrease in H3R2me2a level at 0.1 uM incubated for 24 hrs by Western blot analysis; assay type: cell-based
[15] = biological target: Protein arginine N-methyltransferase 6 (Homo sapiens) (UniProt Q96LA8); assay: Inhibition of PRMT6 in human A549 cells assessed as decrease in H4R3me2a level at 0.1 uM incubated for 24 hrs by Western blot analysis; assay type: cell-based

Chain of Protein arginine N-methyltransferase 6 (Homo sapiens) (Q96LA8 whole entry, looked up): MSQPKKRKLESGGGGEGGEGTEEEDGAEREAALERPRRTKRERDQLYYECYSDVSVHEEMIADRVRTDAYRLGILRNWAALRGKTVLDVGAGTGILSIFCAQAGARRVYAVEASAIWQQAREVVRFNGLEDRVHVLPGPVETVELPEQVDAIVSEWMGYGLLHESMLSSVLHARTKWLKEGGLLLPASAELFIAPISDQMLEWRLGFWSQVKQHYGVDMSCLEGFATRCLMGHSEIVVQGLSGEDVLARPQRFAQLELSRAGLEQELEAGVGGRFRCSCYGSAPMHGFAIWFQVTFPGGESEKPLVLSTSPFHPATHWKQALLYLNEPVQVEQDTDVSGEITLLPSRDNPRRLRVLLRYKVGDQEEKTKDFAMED

SMILES | Activity (A549 [1]) | Activity [2] | remaining at 72 h [3] | Activity (HUVEC) | Activity (A549 [4]) | Activity (A549 [5]) | Activity (A549 [6]) | Activity (A549 [7]) | Activity (A549 [8]) | Activity [9] | viability at 10 µM (A549 [10]) | Stability [11] | Activity (A549 [12]) | viability at 10 µM (A549 [13]) | inhibition [14] | inhibition [15]
CCN(CC)c1ccc2c(COC(=O)NCCN(C)Cc3c[nH]cc3-c3ccc(OC(C)C)cc3)cc(=O)oc2c1 | No effect | 470 nm | > 75% | Non-toxic | Active; About 5.4:1 Ratio Between Down-Regulated And Upregulated Genes Observed | Active; Downregulation Of Gene Sets Observed | No effect | ~56% | No effect | 380 nm | 94.6% | Unstable | Active; Downregulation Of Gene Sets Observed | 79.4% | – | –
CC(C)Oc1ccc(-c2c[nH]cc2CN(C)CCN)cc1 | – | – | – | – | – | – | – | – | – | – | – | – | – | – | Active | Active
